What all share (type): functional
The test system of assay [1] is Mus musculus. Kind of assay: In vivo antitumor activity against P-388 leukemia in CDF1 mice at 128 mg or 331 umol by ip administration expressed as average wt. change determined between day 0 and day 6 of experiment.
Assay [2] has as its system Mus musculus. Kind of assay: In vivo antitumor activity against P-388 leukemia in CDF1 mice at 16 mg or 41 umol by ip administration expressed as average wt. change determined between day 0 and day 6 of experiment.
Assay [3] has as its system Mus musculus. As to the kind of experiment: In vivo antitumor activity against P-388 leukemia in CDF1 mice at 32 mg or 83 umol by ip administration expressed as average wt. change determined between day 0 and day 6 of experiment.
In assay [4] the test system is Mus musculus. Kind of assay: In vivo antitumor activity against P-388 leukemia in CDF1 mice at 64 mg or 166 umol by ip administration expressed as average wt. change determined between day 0 and day 6 of experiment.
Assay [5] relates to Mus musculus. As to the kind of experiment: In vivo antitumor activity against P-388 leukemia in CDF1 mice at 8 mg or 21 umol by ip administration expressed as average wt. change determined between day 0 and day 6 of experiment.
Assay [6] deals with Mus musculus. As to the kind of experiment: In vivo antitumor activity against P-388 leukemia in CDF1 mice at 256 mg or 663 umol by ip administration expressed as average wt. change determined between day 0 and day 6 of experiment.
Assay [7] concerns Mus musculus. As to the kind of experiment: effect of drug treatment in combination with gamma radiation on P-388 leukemia in mice at 250 mg/kg and 200R expressed as average weight change.
Assay [8] deals with Mus musculus. As to the kind of experiment: effect of drug treatment in combination with gamma radiation on P-388 leukemia in mice at 250 mg/kg and 400R expressed as average weight change.
Assay [9] concerns Mus musculus. As to the kind of experiment: effect of drug treatment in combination with gamma radiation on P-388 leukemia in mice at 250 mg/kg and 600R expressed as average weight change.
In assay [10] the test system is Mus musculus. Kind of assay: In vivo antitumor activity against P-388 leukemia in CDF1 mice at 128 mg or 331 umol by ip administration expressed as median survival time of drug treated mice/median survival time of control mice x100.
The subject of assay [11] is Mus musculus. Kind of assay: In vivo antitumor activity against P-388 leukemia in CDF1 mice at 16 mg or 41 umol by ip administration expressed as median survival time of drug treated mice/median survival time of control mice x100.
Assay [12] relates to Mus musculus. As to the kind of experiment: effect of drug treatment in combination with gamma radiation on P-388 leukemia in mice at 250 mg/kg and 200R expressed as median survival time of drug treated mice/median survival time of control mice x100.
The subject of assay [13] is Mus musculus. Kind of assay: effect of drug treatment in combination with gamma radiation on P-388 leukemia in mice at 250 mg/kg and 400R expressed as median survival time of drug treated mice/median survival time of control mice x100.
The test system of assay [14] is Mus musculus. Kind of assay: effect of drug treatment in combination with gamma radiation on P-388 leukemia in mice at 250 mg/kg and 600R expressed as median survival time of drug treated mice/median survival time of control mice x100.
Assay [15] concerns Mus musculus. Kind of assay: In vivo antitumor activity against P-388 leukemia in CDF1 mice at 8 mg or 21 umol by ip administration expressed as median survival time of drug treated mice/median survival time of control mice x100.
Assay [16] deals with Mus musculus. As to the kind of experiment: In vivo antitumor activity against P-388 leukemia in CDF1 mice at 256 mg or 663 umol by ip administration expressed as median survival time of drug treated mice/median survival time of control mice x100.
Assay [17] relates to Mus musculus. Kind of assay: In vivo antitumor activity against P-388 leukemia in CDF1 mice at 32 mg or 83 umol by ip administration expressed as median survival time of drug treated mice/median survival time of control mice x100.
Assay [18] relates to Mus musculus. As to the kind of experiment: In vivo antitumor activity against P-388 leukemia in CDF1 mice at 64 mg or 166 umol by ip administration expressed as median survival time of drug treated mice/median survival time of control mice x100.
Assay [19] has as its system Mus musculus. Kind of assay: In vivo antitumor activity against P-388 leukemia in CDF1 mice at 128 mg or 373 umol by ip administration expressed as average wt. change determined between day 0 and day 6 of experiment.
For assay [20], the system named is Mus musculus. Kind of assay: In vivo antitumor activity against P-388 leukemia in CDF1 mice at 32 mg or 93 umol by ip administration expressed as average wt. change determined between day 0 and day 6 of experiment.
The test system of assay [21] is Mus musculus. Kind of assay: In vivo antitumor activity against P-388 leukemia in CDF1 mice at 8 mg or 23 umol by ip administration expressed as average wt. change determined between day 0 and day 6 of experiment.
The test system of assay [22] is Mus musculus. As to the kind of experiment: In vivo antitumor activity against P-388 leukemia in CDF1 mice at 256 mg or 746 umol by ip administration expressed as average wt. change determined between day 0 and day 6 of experiment.
In assay [23] the test system is Mus musculus. As to the kind of experiment: In vivo antitumor activity against P-388 leukemia in CDF1 mice at 64 mg or 186 umol by ip administration expressed as average wt. change determined between day 0 and day 6 of experiment.
Assay [24] relates to Mus musculus. As to the kind of experiment: In vivo antitumor activity against P-388 leukemia in CDF1 mice at 16 mg or 47 umol by ip administration expressed as average wt. change determined between day 0 and day 6 of experiment.
For assay [25], the system named is Mus musculus. As to the kind of experiment: In vivo antitumor activity against P-388 leukemia in CDF1 mice at 128 mg or 373 umol by ip administration expressed as median survival time of drug treated mice/median survival time of control mice x100.
Assay [26] concerns Mus musculus. Kind of assay: In vivo antitumor activity against P-388 leukemia in CDF1 mice at 64 mg or 186 umol by ip administration expressed as median survival time of drug treated mice/median survival time of control mice x100.
For assay [27], the system named is Mus musculus. Kind of assay: In vivo antitumor activity against P-388 leukemia in CDF1 mice at 8 mg or 23 umol by ip administration expressed as median survival time of drug treated mice/median survival time of control mice x100.
The subject of assay [28] is Mus musculus. Kind of assay: In vivo antitumor activity against P-388 leukemia in CDF1 mice at 256 mg or 746 umol by ip administration expressed as median survival time of drug treated mice/median survival time of control mice x100.
Assay [29] concerns Mus musculus. Kind of assay: In vivo antitumor activity against P-388 leukemia in CDF1 mice at 32 mg or 93 umol by ip administration expressed as median survival time of drug treated mice/median survival time of control mice x100.
Assay [30] relates to Mus musculus. Kind of assay: In vivo antitumor activity against P-388 leukemia in CDF1 mice at 16 mg or 47 umol by ip administration expressed as median survival time of drug treated mice/median survival time of control mice x100.
Assay [31] concerns Mus musculus. Kind of assay: In vivo antitumor activity against P-388 leukemia in CDF1 mice at 128 mg or 330 umol by ip administration expressed as average wt. change determined between day 0 and day 6 of experiment.
For assay [32], the system named is Mus musculus. Kind of assay: In vivo antitumor activity against P-388 leukemia in CDF1 mice at 64 mg or 165 umol by ip administration expressed as average wt. change determined between day 0 and day 6 of experiment.
Assay [33] relates to Mus musculus. As to the kind of experiment: In vivo antitumor activity against P-388 leukemia in CDF1 mice at 256 mg or 661 umol by ip administration expressed as average wt. change determined between day 0 and day 6 of experiment.
Assay [34] concerns Mus musculus. Kind of assay: In vivo antitumor activity against P-388 leukemia in CDF1 mice at 128 mg or 330 umol by ip administration expressed as median survival time of drug treated mice/median survival time of control mice x100.
Assay [35] has as its system Mus musculus. As to the kind of experiment: In vivo antitumor activity against P-388 leukemia in CDF1 mice at 256 mg or 661 umol by ip administration expressed as median survival time of drug treated mice/median survival time of control mice x100.
The test system of assay [36] is Mus musculus. As to the kind of experiment: In vivo antitumor activity against P-388 leukemia in CDF1 mice at 64 mg or 165 umol by ip administration expressed as median survival time of drug treated mice/median survival time of control mice x100.

On to `CC1(C)CN1P(=O)(NC(=O)OCCn1ccnc1[N+](=O)[O-])N1CC1(C)C` (configuration not stated), for which the Average weight change in assay [1] is -1.1 g; in assay [2], 0.6 g; in assay [3], 0.8 g; in [4] it was -0.5 g; in assay [5] it was 1.6 g; in assay [6], -1 g. Besides, the Average weight change is recorded as 1.92 g in assay [7], 1.17 g in assay [8] and 0.67 g in assay [9]. The T/C in assay [10] is 156%; in assay [11], 125%; in [12], 190%; in assay [13] it was 200%; in [14] it was 230%; in assay [15], 113%. Further, the T/C in [16] was 169%; in assay [17], 125%; in assay [18], 144%.

As for `CC1(C)CN1P(=O)(OCCn1ccnc1[N+](=O)[O-])N1CC1(C)C` (configuration not stated), the Average weight change in [19] was -1.3 g; in assay [20], -0.9 g; in [21], 0.2 g; in [22], -2.8 g; in [23] it was -1.1 g; in assay [24], 0.1 g. Further, the T/C in assay [25] is listed as 189%; in [26], 150%; in [27] it was 106%; in assay [28], 228%; in assay [29], 111%; in assay [30], 122%.

As to `COCC(Cn1ccnc1[N+](=O)[O-])OP(=O)(N1CC1(C)C)N1CC1(C)C` (configuration not stated), the Average weight change in assay [31] is recorded as -0.3 g; in assay [2], 0.8 g; in [3], 0.4 g; in assay [32], 0.2 g; in assay [5], 1.2 g; in assay [33], -1.5 g. Moreover, the T/C in [34] came to 150%; in [11] it was 100%; in assay [15], 106%; in [35] it was 200%; in [17], 122%; in assay [36], 133%.
